Laboratory results as given in patent publication US20250276034A1, “RELEASE-CONTROLLED TOPICAL INJECTION COMPOSITION CONTAINING CYCLIC PEPTIDE AND PREPARATION METHOD THEREFOR” (ORIENTBIO INC., priority 2021, published 2025).
In brackets after ≈: the same amount, converted by molar mass.

Assays:
[1] = Determination of crystallinity by X-ray diffraction (XRD); type: physicochemical; conditions: raw powder and after evaporation or drowning-out crystallization
Procedure: XRD measurement conditions and a crystallization method used in this experiment are as follows.
X-ray diffractometer (model name: MiniFlex, Rigaku, Tokyo, Japan/-X-ray generator: graphite monochromatized Cu Kα radiation (λ=1.5418 Å, 2θ range: from 10° to 30° with a step size of 0.02°/−Scanning rate: 1.0°/min)

[2] = Determination of crystallinity by differential scanning calorimetry (DSC); type: physicochemical; conditions: raw powder, heating curves
Procedure: Differential scanning calorimetry (DSC) was used to identify a difference in crystallinity between cyclosporine A and OND-1 by determining the melting point, glass transition temperature, and recrystallization of the drugs. DSC measurement conditions were as follows.
DSC (model name: DSC Q2000; manufacturer: TA instruments; purging gas: N2 gas (flow: 70 mL/min); heating rate: 5° C./min; isothermal temperature: 10° C./min; cycle number: 1 (from 20° C. to 200° C.)

[3] = In-vitro skin penetration and skin deposition (Franz diffusion cell); type: in vitro ADME; conditions: porcine skin, 200 μg OND-1 in 0.2 ml olive oil, 37° C.
Procedure: A percutaneous absorption diffusion test (Franz diffusion cell) was conducted to determine skin penetration of position 3-substituted cyclosporine derivatives by topical skin application.
Specifically, frozen porcine skin was thawed, followed by removal of subcutaneous fat from the dermis, and then the skin was cut into a disc shape with a diameter of 3 cm. Then, the skin was mounted in a skin permeation device (Franz diffusion, receptor volume: 5 ml, diffusion area: 0.785 cm^2) with the stratum corneum facing an upper donor chamber and the dermis facing a lower receptor chamber. […] Hourly, 500 μl of a receiving solution (PBS containing 0.2% Tween 80, pH: 7.4) was sampled, followed by replenishment with an equal volume of fresh one.
The position 3-substituted cyclosporine derivative in the sampled solution was subjected to quantitative analysis by HPLC, followed by calculation of the average value of five replicates to determine the permeation amount of the position 3-substituted cyclosporine derivative.
After 24 hours of use, the skin was removed from the skin permeation device, washed several times with ethanol, dried, and tape-stripped (10 times with scotch tape) to completely remove any residual drug from the surface thereof. The collected skin samples were lysed by incubation with collagenase type I (Gibco®) solution at 37° C. for 24 hours. Thereafter, samples were obtained by a liquid-liquid phase extraction method using methyl tert-butyl ether (MTBE), followed by quantitative analysis of the position 3-substituted cyclosporine derivative by HPLC to calculate the quantity of drug deposited in the skin.
Details of the liquid-liquid extraction method are as follows. A 200 μl to 400 μl aliquot of each of the lysed skin samples was dispensed, followed by addition of 1.2 ml of MTBE. After high-speed shaking for 10 minutes, an organic solvent layer (1 ml) was separated by centrifugation (13,000 rpm, 3 minutes) and then dried under nitrogen flow for 10 minutes. Thereafter, the organic solvent layer was dissolved with a reconstituted solvent (75% acetonitrile) and filtered through a syringe filter to obtain a sample for analysis.

[4] = Drug remaining at administration site, non-administration site and in blood after topical injection (LC/MS); type: in vivo, mice (C57BL/6)
Procedure: Specifically, the drug level in blood was determined by a liquid-liquid extraction method using methyl tert-butyl ether (MTBE) and LC/MS analysis. Preparation of skin samples at a targeted site and a non-administration site and the liquid-liquid-phase extraction method using MTBE were the same as in Experimental Example 9. […] After initially increasing the proportion of mobile phase B to 20% for 3 minutes to equilibrate the mobile phase, the flow rate of the mobile phase was 0.4 ml/min and the sample injection volume was 3 μl. In addition, as a mass spectrometer, a 4000 Q TRAP Mass Spectrometer system from Applied Bioscience was used.

Solubility in water = type: physicochemical
[5] = Partition coefficient (log P); type: physicochemical

Compound	XRD pattern [1]	crystallinity by DSC [2]	Penetration rate (μg/cm^2) ([3]; 6 hr)	Penetration rate (μg/cm^2) ([3]; 14 hr)	Penetration rate (μg/cm^2) ([3]; 20 hr)	Penetration rate (μg/cm^2) ([3]; 24 hr)	Analysis of OND-1 level in systemic blood (μg/ml) ([4]; C57BL/6 mice, topical injection of depot solution containing particles of Example 1-B, individual test subjects 1-5)	Quantity of OND-1 remaining at non-administration site (μg/g) ([4]; C57BL/6 mice, topical injection of depot solution containing particles of Example 1-B, skin, individual test subjects 1-5)	OND-1 detected in the skin at the site of topical administration ([4]; mice, topical injection)	OND-1 detected in the surrounding skin or the systemic blood ([4]; mice, topical injection)	solubility (Solubility in water)	logP [5]
Cyclosporine A [CsA, reference compound]	crystalline XRD pattern	crystalline	–	–	–	–	–	–	–	–	–	–
C/C=C/C[C@@H](C)[C@@H](O)[C@H]1C(=O)N[C@@H](CC)C(=O)N(C)[C@H](SC)C(=O)N(C)[C@@H](CC(C)C)C(=O)N[C@@H](C(C)C)C(=O)N(C)[C@@H](CC(C)C)C(=O)N[C@@H](C)C(=O)N[C@H](C)C(=O)N(C)[C@@H](CC(C)C)C(=O)N(C)[C@@H](CC(C)C)C(=O)N(C)[C@@H](C(C)C)C(=O)N1C [OND-1, [D-2-methylthio-Sar^3]cyclosporine A]	amorphous XRD pattern	amorphous	1.3 μg/cm^2	1.1 μg/cm^2	0.2 μg/cm^2	1.1 μg/cm^2	Not detected	Not detected	highly detected	rarely detected	10 µg/mL (≈ 8.01 µM)	3.84
